{"source": "patent US20210363495A1", "about": "“CULTURE MEDIA FOR PLURIPOTENT STEM CELLS” (Yeda Research and Development Co. Ltd., priority 2019, published 2021)", "key": {"[1]": {"target": "PKCα (Homo sapiens, UniProt P17252)", "details": "cited from earlier work"}, "[2]": {"target": "PKCβ (Homo sapiens, UniProt P05771)", "sequence (P05771 whole entry, species assumed)": "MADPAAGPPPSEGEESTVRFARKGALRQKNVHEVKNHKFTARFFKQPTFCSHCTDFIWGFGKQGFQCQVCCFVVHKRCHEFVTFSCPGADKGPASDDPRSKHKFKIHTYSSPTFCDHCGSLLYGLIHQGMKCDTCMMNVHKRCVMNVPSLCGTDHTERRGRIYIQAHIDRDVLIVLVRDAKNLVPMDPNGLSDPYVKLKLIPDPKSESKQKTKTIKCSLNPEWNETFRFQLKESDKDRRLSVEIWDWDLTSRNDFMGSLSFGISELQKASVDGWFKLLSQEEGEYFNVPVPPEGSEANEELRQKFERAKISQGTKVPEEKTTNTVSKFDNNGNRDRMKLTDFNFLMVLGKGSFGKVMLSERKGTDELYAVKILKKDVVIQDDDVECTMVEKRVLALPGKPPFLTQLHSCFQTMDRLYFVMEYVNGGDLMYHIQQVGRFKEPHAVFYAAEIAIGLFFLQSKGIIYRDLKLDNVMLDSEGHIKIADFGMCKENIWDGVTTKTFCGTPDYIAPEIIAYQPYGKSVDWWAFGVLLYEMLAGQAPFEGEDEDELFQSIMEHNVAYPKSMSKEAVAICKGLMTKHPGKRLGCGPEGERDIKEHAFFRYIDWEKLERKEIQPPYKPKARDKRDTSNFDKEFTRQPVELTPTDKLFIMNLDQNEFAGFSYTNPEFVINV", "details": "cited from earlier work"}, "[3]": {"target": "PKCγ (Homo sapiens, UniProt P05129)", "details": "third value of the list; cited from earlier work"}, "[4]": {"tested_on": "PKCγ", "details": "fourth value of the list; read-out: IC50 PKCγ (second mention); cited from earlier work"}, "[5]": {"target": "T1, PKCζ (Homo sapiens, UniProt Q05513)", "T1 sequence (Q05513 1-592)": "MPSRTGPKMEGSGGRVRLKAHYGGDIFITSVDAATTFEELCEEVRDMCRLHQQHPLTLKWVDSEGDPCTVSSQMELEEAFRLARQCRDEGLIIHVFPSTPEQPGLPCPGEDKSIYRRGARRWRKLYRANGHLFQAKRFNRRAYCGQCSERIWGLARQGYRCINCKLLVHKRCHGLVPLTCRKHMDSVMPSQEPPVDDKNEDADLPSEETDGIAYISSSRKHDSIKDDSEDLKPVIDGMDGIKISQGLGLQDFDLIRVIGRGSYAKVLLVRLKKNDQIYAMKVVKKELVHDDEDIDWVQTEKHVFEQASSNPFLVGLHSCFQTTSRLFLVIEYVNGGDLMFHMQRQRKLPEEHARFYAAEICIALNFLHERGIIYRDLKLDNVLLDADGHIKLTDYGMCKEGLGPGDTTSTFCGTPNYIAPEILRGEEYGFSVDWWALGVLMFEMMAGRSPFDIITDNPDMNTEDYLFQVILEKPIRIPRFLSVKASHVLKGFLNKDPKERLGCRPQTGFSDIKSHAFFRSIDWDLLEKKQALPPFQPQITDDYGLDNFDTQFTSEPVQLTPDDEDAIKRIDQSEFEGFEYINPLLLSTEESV", "details": "cited from earlier work"}, "[6]": {"target": "T2, PKCμ (Homo sapiens, UniProt Q15139)", "T2 sequence (Q15139 1-912)": "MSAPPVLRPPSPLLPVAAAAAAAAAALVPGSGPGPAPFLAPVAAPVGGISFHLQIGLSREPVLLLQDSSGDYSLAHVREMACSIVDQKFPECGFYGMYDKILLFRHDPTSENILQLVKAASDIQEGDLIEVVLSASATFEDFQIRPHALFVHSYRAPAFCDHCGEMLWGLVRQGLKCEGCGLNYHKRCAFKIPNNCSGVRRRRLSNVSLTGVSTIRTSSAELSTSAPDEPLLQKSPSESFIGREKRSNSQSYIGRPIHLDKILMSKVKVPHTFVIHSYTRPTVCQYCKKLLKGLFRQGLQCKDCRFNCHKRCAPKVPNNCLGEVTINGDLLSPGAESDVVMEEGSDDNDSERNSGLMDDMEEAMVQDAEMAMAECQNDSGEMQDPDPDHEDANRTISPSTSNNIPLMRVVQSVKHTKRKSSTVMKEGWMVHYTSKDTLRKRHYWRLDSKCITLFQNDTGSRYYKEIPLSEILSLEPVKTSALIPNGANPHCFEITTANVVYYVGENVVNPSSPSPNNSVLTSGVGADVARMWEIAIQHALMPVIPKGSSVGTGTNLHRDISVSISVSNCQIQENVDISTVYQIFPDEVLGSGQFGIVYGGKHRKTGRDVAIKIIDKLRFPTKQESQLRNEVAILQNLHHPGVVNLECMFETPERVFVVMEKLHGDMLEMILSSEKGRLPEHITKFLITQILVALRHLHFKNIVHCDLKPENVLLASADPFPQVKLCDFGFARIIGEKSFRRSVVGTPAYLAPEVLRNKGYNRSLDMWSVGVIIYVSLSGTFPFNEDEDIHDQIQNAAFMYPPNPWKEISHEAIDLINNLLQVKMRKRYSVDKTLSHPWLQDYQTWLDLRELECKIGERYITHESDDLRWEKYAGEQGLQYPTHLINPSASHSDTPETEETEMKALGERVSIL", "details": "cited from earlier work"}, "[7]": {"tested_on": "human naïve PSCs", "assay": "RT-PCR analysis for naïve pluripotency markers", "assay_type": "cell-based", "details": "ENHSM with and without P38i/JNKi, normalized to ACTIN, primed set as 1", "source_text": "(§1) FIGS. 2A-I. Optimizations for enhanced human naive pluripotency conditions. A. W3G4 METTL3 TET-OFF cells were maintained in the presence of DOX for up to 4 passages in different conditions and stained for OCT4 to quantify percentage of cells that retained their pluripotency. […] B. Quantification of ΔPE-OCT4-GFP knock in naïve pluripotency reporter, in variety of primed (red) and naïve conditions (blue). Mean fluorescence intensity values (MFI) are indicated. […] C. Quantification of ΔPE-OCT4-GFP knock in naïve pluripotency reporter, in optimized naïve conditions and various concentrations of GSK3 inhibitor that leads to WNT activation (CHIR99021 is used as GSK3 inhibitor and is abbreviated as CHIR). […] D. Phase images showing how supplementation of 0.2% Geltrex (Life Technologies) in the growth media and SRCi additively enhance domed like morphology of human naïve PSCs in ENHSM conditions optimized herein. E. RT-PCR analysis for naïve pluripotency markers in ENHSM conditions with and without P38i/JNKi (BIRB0796). Values were normalized to ACTIN and values in Primed conditions were set as 1. […] F. W3G4 METTL3 TET-OFF cells were maintained in the presence of DOX for up to 4 passages in the optimized ENHSM conditions but without TNKi, in order to see if other molecules can substitute for TNKi after all optimizations were applies (e.g. adding of Geltrex, concentration optimization). […]"}, "[8]": {"tested_on": "WIBR3 hESC line carrying ΔPE-OCT4-GFP reporter", "assay": "ΔPE-OCT4-GFP knock in naïve pluripotency reporter quantification", "assay_type": "cell-based, human", "source_text": "as §1"}, "[9]": {"tested_on": "human naïve PSCs", "assay": "Pluripotency maintenance of naïve cells in ENHSM supplemented with CHIR", "assay_type": "cell-based", "details": "ENHSM plus CHIR; TGFB inhibition, depleted DNA and RNA methylation or no L-Glutamine", "source_text": "The present inventors next aimed to define the signaling pathway downstream of Tankyrase inhibition facilitating human naïve PSCs stabilization. Bcat-KO ESCs had higher levels of Oct4-GFP in ENHSM condition, and upon removal of XAV939 GFP level was not decreased in KO, but in WT ESCs. A similar trend was shown in RT-PCR analysis. Supplementing naïve cells with WNT stimulator compromised delta-PE-OCT4-GFP levels, compromised their domed shape like morphology and their transcriptional profile. Using a tamoxifen induced Beta-Catenin-ERT transgene, the present inventors noted that delta-PE-OCT4-GFP signal and domed morphology were compromised upon tamoxifen stimulation. […] Similarly, while KO of TCF3 boosts mouse naïve pluripotency and alleviates the need for WNT stimulation, TCF3 KO ESCs still required WNTi and/or SRCi to maintain their naïve identity in humans. […] Collectively, these findings clearly establish WNT as a priming agent for human, but not mouse, naïve pluripotency and establish that KO of beta-catenin can substitute for Tankyrase inhibition."}, "[10]": {"tested_on": "Tet-OFF-METTL3 hESCs (WIBR3, clone W3G4)", "assay": "Pluripotency (OCT4+) maintenance of Tet-OFF-METTL3 hESCs in the presence of DOX", "assay_type": "cell-based, human", "details": "individual small molecule supplemented to NHSM, Geltrex coated plates, no MEFs", "source_text": "FIGS. 1A-I Defining enhanced human naive conditions compatible with expanding METTL3 depleted PSCs. A. Strategy for generating human ESCs with TET-OFF regulated expression of METTL3 m^6A methyltransferase enzyme. B. Western blot analysis for correctly engineered human ESCs with TET-OFF METTL3 regulation, before and after DOX treatment. C. Representative images for human METTL3 TET-OFF engineered cells in different conditions with or without DOX addition. […] D. Scheme depicting strategy for conducting a screen for identifying a small molecule or cytokine additive to previously described human naïve NHSM conditions that allow maintain pluripotency in TET-OFF METTL3 human stem cells after adding DOX. E. W3G4 cells were maintained in the presence of DOX for up to 4 passages in different conditions and stained for OCT4 to quantify percentage of cells that retained their pluripotency. […] F. OCT4+ pluripotency maintenance in NHSM conditions supplemented with various TNK inhibitors and DOX to repress METTL3 expression. G. Quantification of ΔPE-OCT4-GFP knock in naïve pluripotency reporter, in variety of primed (red) and naïve conditions (blue). Mean fluorescence intensity values (MFI) are indicated. H. Quantification of ΔPE-OCT4-GFP knock in naïve pluripotency reporter in variety of conditions with various concentrations of ACTIVIN A recombinant cytokine. […] I. Representative phase contrast images in human ESCs expanded in NHSM+TNKi conditions showing their maintenance of pluripotent domed-like morphology even in the presence of FGFRi.\nIn order to identify culture conditions which capture human naïve PSC, the present inventors looked for agents which are capable of maintaining stem cells in a pluripotent state in the absence of defined epigenetic repressors. Human knock-in WIBR3 hESC lines with conditional inducible ablation expression of METTL3 were engineered (FIG. 1A). This was carried out by introducing an exogenous METTL3 transgene under the regulation of Tet-OFF promoter (Liao et al., 2015), followed by CRISPR/Cas9 mediated ablation of both endogenous human METTL3 alleles. Two resultant clones were validated for METTL3 expression only from the exogenous allele, which can be shut off by addition of DOX to the media (called Tet-OFF-METTL3 lines) (FIG. 1B).\nThe latter further support rewiring toward naïve pluripotency in NHSM conditions. […] Candidate molecules were tested for the ability to enrich NHSM conditions that allow Tet-OFF-METTL3 to be maintained on Geltrex coated plates in the presence of DOX.\nNHSM conditions were supplemented with individual small molecules (FIG. 1D). […] IWR1 is a WNT inhibitor (WNTi) small molecule that stabilizes AXIN protein in the cytoplasm by inhibiting Tankyrase enzyme (abbreviated herein as TNK inhibitor—TNKi)."}, "[11]": {"tested_on": "primed human PSCs", "assay": "Single cell cloning efficiency", "assay_type": "cell-based", "details": "primed cells, ROCK inhibitor used"}}}
{"smiles": "COc1ccc2c(c1)c(C1=C(c3c[nH]c4ccccc34)C(=O)NC1=O)cn2CCCN(C)C", "note": "[Go6983]", "values": [{"measurement": "IC50", "setting": "[1]", "value": 7, "unit": "nM"}, {"measurement": "IC50", "setting": "[2]", "value": 7, "unit": "nM"}, {"measurement": "IC50", "setting": "[3]", "value": 6, "unit": "nM"}, {"measurement": "IC50", "setting": "[4]", "value": 10, "unit": "nM"}, {"measurement": "IC50", "setting": "[5]", "value": 60, "unit": "nM"}, {"measurement": "IC50", "setting": "[6]", "value": 20000, "unit": "nM"}]}
{"smiles": "Cc1ccc(-n2nc(C(C)(C)C)cc2NC(=O)Nc2ccc(OCCN3CCOCC3)c3ccccc23)cc1", "note": "[BIRB0796]", "values": [{"measurement": "naïve pluripotency marker expression", "setting": "[7]", "value": "boosts expression of naïve pluripotency markers"}]}
{"smiles": "Cc1c[nH]c(-c2cnc(NCCNc3ccc(C#N)cn3)nc2-c2ccc(Cl)cc2Cl)n1", "note": "[CHIR99021]", "values": [{"measurement": "ΔPE-OCT4-GFP intensity", "setting": "[8]; optimized naïve conditions, various concentrations of GSK3 inhibitor", "value": "negatively influences human naive pluripotency"}, {"measurement": "ability to maintain pluripotency", "setting": "[9]", "value": "compromised their ability to maintain pluripotency"}]}
{"smiles": "O=C(Nc1cccc2cccnc12)c1ccc(N2C(=O)[C@@H]3[C@H](C2=O)[C@@H]2C=C[C@H]3C2)cc1", "note": "[IWR1]", "values": [{"measurement": "expansion of Tet-OFF-METTL3 on DOX", "setting": "[10]", "value": "enabled the expansion of Tet-OFF-METTL3 on DOX with great homogeneity"}, {"measurement": "ΔPE-OCT4-GFP expression", "setting": "[8]; TNKi supplemented to NHSM conditions", "value": "boosts expression of GFP"}]}
{"smiles": "C[C@@H](N)[C@H]1CC[C@H](C(=O)Nc2ccncc2)CC1", "note": "[Condition Y27632]", "values": [{"measurement": "single cell cloning", "setting": "[11]", "value": "10-20%"}]}
